Assay results reported in patent publication US20060235062A1, “Novel heterocyclic analogs of diphenylethylene compounds” (THERACOS, INC., priority 2002, published 2006).

Key:
PPAR-gamma = target: T1, PPAR-gamma (Homo sapiens, UniProt P37231); conditions: Rocchi et al, Mol Cell 8:737-47, 2001; cited from earlier work
T1 sequence (P37231 1-505): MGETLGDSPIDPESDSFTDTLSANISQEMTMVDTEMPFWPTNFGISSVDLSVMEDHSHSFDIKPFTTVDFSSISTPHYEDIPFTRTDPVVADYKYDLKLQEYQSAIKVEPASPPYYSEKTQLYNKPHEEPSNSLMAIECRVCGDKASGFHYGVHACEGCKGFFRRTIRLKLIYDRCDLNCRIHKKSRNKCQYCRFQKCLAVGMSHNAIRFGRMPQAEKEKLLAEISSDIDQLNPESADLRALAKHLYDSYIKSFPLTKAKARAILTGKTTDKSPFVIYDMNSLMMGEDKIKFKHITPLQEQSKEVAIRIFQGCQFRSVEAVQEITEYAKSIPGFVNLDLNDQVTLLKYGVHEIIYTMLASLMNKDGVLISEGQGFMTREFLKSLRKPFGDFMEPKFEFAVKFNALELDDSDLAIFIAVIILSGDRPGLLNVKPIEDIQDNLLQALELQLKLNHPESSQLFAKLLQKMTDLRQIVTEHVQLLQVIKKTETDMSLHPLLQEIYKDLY

NF-kB p65 = NF-kB p65 activation in LPS-stimulated RAW cells (ELISA); format: cell-based; conditions: 10 μM, 1 μg/ml LPS 15 min, FIG. 15
3T3-L1 adipocytes = assay: Glucose uptake in differentiated 3T3-L1 adipocytes; format: cell-based
Description: Referring to FIG. 8 glucose uptake in 3T3-L1 differentiated adipocytes was measured after treatment with the test compound. The assay was conducted according to the method of Tafuri, Endocrinology, 137, 4706-4712 (1996). The serum-starved cells were treated with the test compound for 48 hours at different concentrations, then washed and incubated in glucose-free media for 30 minutes at 37° C. Then ^14C-deoxyglucose was added and uptake was monitored for 30 minutes under incubation. After washing, the cells were lysed (0.1% SIDS) and counted.
Basal glucose uptake was measured in differentiated 3T3-L1 adipocytes following the protocol of Tafuri (6) with modifications. Briefly, 3T3-L1 fibroblasts, obtained from ATCC (Manassas, Va.), were differentiated to adipocytes by treating cells with porcine insulin (1 μg/ml for 4 days), dexamethasone (0.25 μM for first 2 days) and isobutyl methyl xanthine (IBMX, 0.5 mM for first 2 days) (all from Sigma Chemicals, St Louis, Mo.) following the protocol of Frost and Lane (7). Differentiated adipocytes were incubated in Dulbecco's Modified Eagle Medium (DMEM) containing 10% fetal bovine serum (GibcoBRL, Gaithersburg, Md.) with various concentrations of Compound 11 or vehicle (0.1% DMSO) for 48 h in 24-well plates, in triplicate. Cells were washed with phosphate buffered saline (PBS, 150 mM NaCl, 1 mM KH2PO4, 3 mM Na2HPO4; pH 7.4) and incubated in glucose-free DMEM for 2 h at 37° C. The cells were washed 3 times with Krebs Ringer Phosphate Buffer (KRP). Glucose uptake was initiated by addition of 0.25 μCi 2-^14C(U)-deoxy-D-glucose (300 μCi/mmol, American Radiolabeled Chemicals Inc., St Louis, Mo.) per well and the cells incubated for 10 min at room temperature in the presence of 0.1 mmol cold 2-deoxy-D-glucose. Finally, the cells were washed three times with ice-cold PBS containing 10 mM cold glucose, lysed with 0.5% SDS, and counted in a scintillation counter (Beckman LS6500).

COX-2 = target: T2, COX-2 (Mus musculus, UniProt Q05769); assay: LPS-induced COX-2 activity in RAW cells (PGE2 production); format: cell-based; conditions: 0.1-100 μM, FIG. 12
T2 sequence (Q05769 18-604): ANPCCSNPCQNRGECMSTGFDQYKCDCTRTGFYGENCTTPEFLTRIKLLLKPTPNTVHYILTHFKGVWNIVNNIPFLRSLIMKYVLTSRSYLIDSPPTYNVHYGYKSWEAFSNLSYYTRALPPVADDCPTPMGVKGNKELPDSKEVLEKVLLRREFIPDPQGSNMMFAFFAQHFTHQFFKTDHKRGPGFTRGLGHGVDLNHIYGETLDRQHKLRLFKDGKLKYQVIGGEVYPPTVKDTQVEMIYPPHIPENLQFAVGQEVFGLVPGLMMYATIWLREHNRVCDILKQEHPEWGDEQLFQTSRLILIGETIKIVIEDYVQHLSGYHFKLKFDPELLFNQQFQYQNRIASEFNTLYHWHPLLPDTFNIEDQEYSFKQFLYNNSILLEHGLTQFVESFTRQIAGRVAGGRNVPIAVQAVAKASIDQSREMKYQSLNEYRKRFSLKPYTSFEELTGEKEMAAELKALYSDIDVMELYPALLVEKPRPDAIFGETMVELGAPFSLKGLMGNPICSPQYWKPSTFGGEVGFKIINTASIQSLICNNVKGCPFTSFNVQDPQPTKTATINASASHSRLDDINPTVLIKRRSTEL
Description: (§1) After 1 hour LPS (0.1 pg/mL) was added and cells were incubated an additional 6 hours. Cell supernatant was then collected, aliquoted and frozen at −70° C., and aliquots used to determine COX-2 and COX-1 activity. Compound 11, but not rosiglitazone, inhibited the activity of COX-2 (as measured by PGE2 production in a 50 μl sample).

db/db mice = conditions: db/db mice, 50 mg/kg/day orally, 14 days, FIG. 16A
IkappaB = assay: LPS-stimulated phosphorylation of IkappaB in RAW 264.7 cells; format: cell-based; conditions: RAW 264.7 cells, 3, 10 or 30, LPS plus IFN-gamma, anti-phospho-IkappaB blot
COX-1 = target: T3, COX-1 (Mus musculus, UniProt P22437); assay: COX-1 activity in RAW cells; format: cell-based; conditions: 0.1-100 μM
T3 construct: aliquots used to determine COX-2 and COX-1 activity; endogenous in cells; host or cells: RAW (RAW 264.7) cells
T3 sequence (P22437 27-602): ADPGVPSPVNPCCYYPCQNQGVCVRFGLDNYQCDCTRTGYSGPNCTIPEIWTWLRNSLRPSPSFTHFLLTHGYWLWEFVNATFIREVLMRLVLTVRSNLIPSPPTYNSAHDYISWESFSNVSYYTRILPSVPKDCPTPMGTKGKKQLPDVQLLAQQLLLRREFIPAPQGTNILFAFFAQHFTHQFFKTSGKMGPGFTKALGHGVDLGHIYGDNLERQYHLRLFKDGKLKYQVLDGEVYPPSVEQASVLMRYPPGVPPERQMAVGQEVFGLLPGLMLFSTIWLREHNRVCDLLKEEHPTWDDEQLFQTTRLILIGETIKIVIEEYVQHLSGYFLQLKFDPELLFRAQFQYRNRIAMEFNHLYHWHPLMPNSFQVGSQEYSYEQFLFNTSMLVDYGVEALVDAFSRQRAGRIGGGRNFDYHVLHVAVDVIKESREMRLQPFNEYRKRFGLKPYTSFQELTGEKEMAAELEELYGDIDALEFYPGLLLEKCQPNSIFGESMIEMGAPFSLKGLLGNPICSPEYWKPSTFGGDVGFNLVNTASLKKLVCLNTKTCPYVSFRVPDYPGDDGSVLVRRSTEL
Description: as §1

3T3-L1 fibroblasts = assay: Adipogenesis (triglyceride accumulation) in 3T3-L1 fibroblasts; conditions: 3T3-L1 fibroblasts, 0.1, 1, 10 μM, no dexamethasone, insulin, IBMX, FIG. 23A
Description: After two days of growth in 6-well plates, cells were treated either with vehicle (0.1% DMSO) or with compounds for ten days. Fresh medium with compounds or vehicle was replenished every 48 h. Cells were washed with PBS twice and fixed in 10% formalin (Sigma) in PBS. After washing in PBS, cells were stained with freshly diluted Oil Red O in isopropanol for 1 h at room temperature. The cells were washed five times with PBS and visualized under an Olympus BH2 microscope. Quantitative accumulation of triglyceride was also measured under similar experimental conditions, except in this case cells were plated in 100-mm tissue culture dishes. Triglyceride was extracted with methanol:chloroform (2:1) mixture. […] Extracted triglyceride was measured by a colorimetric assay (GPO-Trinder, Sigma) according to manufacturer instructions.
After 14 days cells were stained with Oil Red O, counterstained with methylene blue for visual assessment (FIG. 23B) and assayed for triglyceride accumulation.

HepG2 cells = assay: Glycogen synthesis in HepG2 cells; format: cell-based

| Compound | less affinity for PPAR-gamma (PPAR-gamma) | inhibition of the activation of NF-kB (p65) (NF-kB p65) | effect on insulin-stimulated glucose uptake (3T3-L1 adipocytes; 5 μM with increasing insulin, FIG. 20B) | % Glucose uptake 0.1 μm (3T3-L1 adipocytes; 0.1 μm, average of quadruplicate ± SD) | % Glucose uptake 1.0 μm (3T3-L1 adipocytes; 1.0 μm, average of quadruplicate ± SD) | inhibition of COX-2 activity (PGE2 production) (COX-2) | blood glucose lowering effect (db/db mice) | inhibition of the phosphorylation of IkappaB (IkappaB) | inhibition of COX-1 activity (COX-1) | maximal triglyceride accumulated, increase over control (3T3-L1 fibroblasts) [fold] | glycogen synthesis, decrease (HepG2 cells; HepG2, 10 μM, 48 h, FIG. 25A) [fold] | increase in glycogen synthesis over baseline (HepG2 cells; HepG2, concentrations higher than 30 μM, ± SD, data not shown) [fold] |
| --- | --- | --- | --- | --- | --- | --- | --- | --- | --- | --- | --- | --- |
| CC(C)C[C@H](NC(=O)OCC1c2ccccc2-c2ccccc21)C(=O)O [FMOC-L-Leucine] | approximately 400 fold | – | – | – | – | – | – | – | – | – | – | – |
| CN(CCOc1ccc(CC2SC(=O)NC2=O)cc1)c1ccccn1 (stereo not drawn) [rosiglitazone, reference compound] | – | did not inhibit | additive, not synergistic | 204.2 ± 8.5 % basal of the non treated cells | 214.7 ± 36.5 % basal of the non treated cells | not | dramatic, comparable blood glucose lowering effects | not | Neither compound inhibited | 9.22 | 0.9 | 1.4±0.06 |
